From patent publication US20240194290A1, “HIDDEN ANTIBIOTICS IN THE HUMAN PROTEOME” (THE TRUSTEES OF THE UNIVERSITY OF PENNSYLVANIA, priority 2021, published 2024)
Ends that are not written are not given here.

Experiments:
[1] = test system: Gram-negative gut commensals (A. muciniphila and Bacteroidetes species); test: Antibacterial assay against Gram-negative gut commensals; assay type: cell-based
Text: The 13 most abundant members of the human gut microbiota^15 were exposed to increasing concentrations of the peptides. Species from four different phyla were used to determine susceptibility to the encrypted peptides: Akkermansia muciniphila (Verrucomicrobia); Bacteroides fragilis, Bacteroides thetaiotaomicron, Bacteroides vulgatus, Bacteroides uniformis, Bacteroides eggerthi, Parabacteroidetes distasonis, and Prevotella copri (Bacteroidetes); Collinsella aerofaciens (Actinobacteria); and Clostridium scindens and Clostridium spiroforme (Firmicutes).
Methods: Bacterial strains and media. […] Minimum inhibitory concentrations (MICs) of peptides were determined using the broth microdilution technique in LB, NB and supplemented BHI with an initial inoculum of 5×10^6 cells in nontreated polystyrene microtiter plates (Corning, USA). […]

[2] = test system: P. aeruginosa PAO1; test: Skin abscess infection mouse model; assay type: in vivo, Pseudomonas aeruginosa; settings: for anti-infective activity (FIG. 4B): 25 μmol L^−1, P. aeruginosa PAO1; for reduction of bacterial load / bacterial counts: mice, single dose 25 μmol L^−1 to infected area, P. aeruginosa
Text: (§1) FIG. 4. Anti-infective activity and synergistic interactions of encrypted peptides in vivo. (FIG. 4A) Schematic of the skin abscess mouse model used to assess the anti-infective activity of selected encrypted peptides from plasma proteins. […] (FIG. 4C) Mouse weight was monitored throughout the experiment (2 days) to rule out potential toxic effects of the encrypted peptides. (FIG. 4D) Schematic of the neutropenic thigh infection mouse model used to assess the anti-infective activity of selected encrypted peptides from plasma proteins. […] (FIG. 4F) Mouse weight was monitored throughout the experiment (8 days) to rule out potential toxic effects of the encrypted peptides.
(§2) To test whether the peptides retain their antimicrobial activity in a complex living system, their properties in two mouse models were assessed. […] Since these peptides are mostly found in plasma, a relevant skin abscess mouse model was used to test their anti-infective activity (FIG. 4A). Mice were infected with bacterial loads of 10^5 and 10^6 cells in 20 μL of the clinically relevant Gram-negative pathogens P. aeruginosa and A. baumannii, respectively (FIG. 4B). […] In order to validate the synergistic effects obtained in vitro (FIG. 3D and FIG. 9), infected mice were treated with combinations of encrypted peptides (FIG. 4B). […] No damage or deleterious effects exerted by the peptides were detected in the mice in any of our experiments.
(§3) Methods: Skin abscess infection mouse model. A. baumannii ATCC19606 and P. aeruginosa strain PAO1 were used to infect the murine skin. Briefly, bacteria were grown in tryptic soy broth (TSB) medium. Subsequently, cells were washed twice with sterile PBS (pH 7.4, 13,000 rpm for 1 min), and resuspended to a final concentration of 1×10^5 and 1×10^6 CFU/20 μL for A. baumannii and P. aeruginosa, respectively. Female CD-1 mice (six-weeks old) were anesthetized with isoflurane and had their backs shaved and a superficial linear skin abrasion was made with a needle in order to damage the stratum corneum and upper-layer of the epidermis. An aliquot of 20 μL containing the bacterial load in PBS was inoculated over each defined area containing the scratch with a pipette tip. […] Animals were euthanized and the area of scarified skin was excised two- and four-days post-infection, homogenized using a bead beater for 20 minutes (25 Hz), and 10-fold serially diluted for CFU quantification. […] Prior to each injection, mice were anesthetized with isoflurane and monitored (respiratory rate and pedal reflexes). Next, we monitored the formation of the abscess and euthanized the mice. The infected area was excised three-days post-infection, homogenized using a bead beater for 20 min (25 Hz), and 10-fold serially diluted for CFU quantification. […]

[3] = test system: A. baumannii ATCC19606; test: Neutropenic thigh infection mouse model; assay type: in vivo, Acinetobacter baumannii; settings: for anti-infective activity (FIG. 4E): alone, A. baumannii ATCC19606; for decrease of bacterial counts compared to untreated controls: mice, 25 μmol L^−1 intramuscular, three days post-treatment, A. baumannii
Text: as §1
Next, the efficacy of the same encrypted peptides (SCUB1-SKE25 and SCUB3-MLP22) was assessed in monotherapy and in combination therapy in a murine thigh infection model (FIG. 4D). This preclinical model is sensitive, standardized, and widely used for assessing antibiotic translatability^43,44. Briefly, mice were rendered neutropenic by cyclophosphamide treatment prior to intramuscular infection with 10^6 cells mL^−1 of the bacterial pathogens P. aeruginosa and A. baumannii (FIG. 4E). Either a single dose of each encrypted peptide (at 25 μmol L^−1) or their combination (also at 25 μmol L^−1) were delivered to the infected site via intramuscular administration. Three days post-treatment, on average the peptides reduced the bacterial load of P. aeruginosa and A. baumannii by 4 and 2 orders of magnitude, respectively, compared to untreated mice.
as §3, with “epidermis.” for “epidermis. An aliquot of 20 μL containing the bacterial load in PBS was inoculated over each defined area containing the scratch with a pipette tip.”

[4] = test system: A. baumannii ATCC19606; test: Skin abscess infection mouse model; assay type: in vivo, Acinetobacter baumannii; settings: for anti-infective activity (FIG. 4B): 25 μmol L^−1, A. baumannii ATCC19606; for reduction of bacterial load / bacterial counts: mice, single dose 25 μmol L^−1 to infected area, A. baumannii
Text: as §1, §2, §3

Sequence	activity against Gram-negative gut commensals [1]	anti-infective activity (FIG. 4B) [2]	reduction of bacterial load / bacterial counts [2]	anti-infective activity (FIG. 4E) [3]	decrease of bacterial counts compared to untreated controls [3]	anti-infective activity (FIG. 4B) [4]	reduction of bacterial load / bacterial counts [4]
MLPKSFIKLLRSKVSSFLRPYK [SCUB3-MLP22]	potent activity	inhibitory activity	3 orders of magnitude	reduced infections	3 orders of magnitude	inhibitory activity	3 orders of magnitude
SKEMFPRSFIKLLRSKVSRFLRPYK [SCUB1-SKE25]	potent activity	inhibitory activity	3 orders of magnitude	reduced infections	3 orders of magnitude	inhibitory activity	3 orders of magnitude
